According to patent publication US12559529B2, “NPY2 receptor agonists” (Boehringer Ingelheim International GmbH, priority 2019, dated 2026):
*1 amine or outer side, *2 acyl side, *3 side chain or, on linkers, in order; H or OH if unused. Where a SMILES comes first, the peptide text is derived from it. Side-chain parts run from the residue outwards. The star is where a group is joined. C18 diacid = O=C(O)CCCCCCCCCCCCCCCCC(=O)*; γGlu = O=C(O)[C@H](CCC(=O)[*:2])N[*:1]; Isovaleryl = CC(C)CC(=O)*; AEEA = NCCOCCOCC(=O)O

Legend:
[1] = test system: normal NMRI mice; assay: Effect on acute food intake in normal NMRI mice; type: in vivo; settings: male NMRI mice, 10 nmol/kg subcutaneously once
Experimental: Male NMRI mice were obtained from Charles River (Charles River, Research Models & Services Germany GmbH) or from Jan Vier (Jan Vier Labs, France) at 5 weeks of age. […] Room temperature was controlled to 21° C.±1° C., with 60%+20% humidity.
Animals were transferred 5-7 days before the start of the study to a real-time food intake monitoring system, HM-2 system (MBRose, Denmark), to allow acclimatization to experimental conditions. As the animals were uniquely identified with microchips, each individual animal was identified by its microchip upon entry and exit from the food channel. Randomization of the mice for each study group (n=7-8) was based on body weight measured the day before the start of the study. A vehicle-treated (50 mM phosphate buffer pH7 with 5% Mannitol) group was included in each experiment. Six hours before the start of the night phase animals were fasted. One hour before the dark phase animals were dosed once subcutaneously (10 nmol/kg) with test peptide. […] The food intake of the treated groups was normalized (in %) to the average food intake of the group receiving vehicle (Table 7). Statistical significance was evaluated using One-way analysis of variance with Turkey's multiple comparison test. P<0.05 was considered statistically significant.

[2] = target: T1, Human Neuropeptide Y2 Receptor (Homo sapiens, UniProt P49146); assay: Radioligand binding competition assay (RLB); settings: Table 3; human 125I-PYY (1-36) 0.02 nM, Y2 receptor membranes; read-out: Ki
T1 construct: purchased CHEMICON HTS066M
T1 sequence (P49146 1-381): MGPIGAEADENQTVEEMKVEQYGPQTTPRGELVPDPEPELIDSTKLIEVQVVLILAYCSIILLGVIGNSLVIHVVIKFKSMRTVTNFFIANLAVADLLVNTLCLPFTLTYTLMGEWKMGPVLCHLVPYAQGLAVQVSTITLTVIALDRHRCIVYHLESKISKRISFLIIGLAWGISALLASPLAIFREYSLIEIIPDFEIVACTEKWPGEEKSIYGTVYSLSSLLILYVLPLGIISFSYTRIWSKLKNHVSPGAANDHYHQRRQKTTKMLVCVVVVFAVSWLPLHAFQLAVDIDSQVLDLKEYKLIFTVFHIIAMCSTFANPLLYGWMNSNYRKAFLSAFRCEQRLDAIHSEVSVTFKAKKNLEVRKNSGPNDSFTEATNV
Outline: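 Competition binding on human Y2 receptor membranes, 0.5 μg protein/well, in 50 mM HEPES, 5 mM MgCl2, 1 mM CaCl2, pH 7.4, 0.2% ovalbumin; peptides diluted from 1 mM DMSO stocks.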

Ki [2] | SMILES | Acute Food Intake 24 h [% vehicle] [1]
 | CC(C)CC(=O)N[C@@H](C)C(=O)N1CCC[C@H]1C(=O)N[C@@H](CCC(=O)O)C(=O)N[C@@H](CCCCNC(=O)COCCOCCNC(=O)COCCOCCNC(=O)CC[C@H](NC(=O)CCCCCCCCCCCCCCCCC(=O)O)C(=O)O)C(=O)N1CCC[C@H]1C(=O)N[C@@H](CCC(=O)O)C(=O)N[C@@H](C)C(=O)N[C@@H](CC(=O)O)C(=O)N[C@@H](C)C(=O)N[C@@H](CO)C(=O)N[C@@H](CCC(=O)O)C(=O)N[C@@H](CCC(=O)O)C(=O)N[C@@H](CCC(=O)O)C(=O)N[C@@H](CC(C)C)C(=O)N[C@@H](CCC(N)=O)C(=O)N[C@@H](CCCNC(=N)N)C(=O)N[C@@H](Cc1ccc(O)cc1)C(=O)N[C@@H](Cc1ccc(O)cc1)C(=O)N[C@H](C(=O)N[C@@H](CO)C(=O)N[C@@H](CC(C)C)C(=O)N[C@@H](CCCNC(=N)N)C(=O)N[C@@H](Cc1c[nH]cn1)C(=O)N[C@@H](Cc1ccc(O)cc1)C(=O)N[C@@H](Cc1ccc(O)cc1)C(=O)N[C@@H](CC(N)=O)C(=O)N[C@@H](Cc1c[nH]c2ccccc12)C(=O)N[C@@H](CC(C)C)C(=O)N[C@H](C(=O)N[C@@H](CCCNC(=N)N)C(=O)N[C@@H](CCC(N)=O)C(=O)N[C@@H](CCCNC(=N)N)C(=O)N[C@@H](Cc1ccc(O)cc1)C(N)=O)[C@@H](C)O)C(C)C [Compound 30, N{alpha-4}-(3-methylbutanoyl)-N{epsilon-7}-[2-(2-{2-[2-(2-{2-[(4S)-4-carboxy-4-(17-carboxyheptadecanamido)butanamido]ethoxy}ethoxy)acetamido]ethoxy}ethoxy)acetamido]-[4A,7K,9E,10A,14E,18Q,22V,28Y,30W,31L]hPYY (4-36)] | 45 % vehicle
 | CC(C)CC(=O)N[C@@H](C)C(=O)N1CCC[C@H]1C(=O)N[C@@H](CCC(=O)O)C(=O)N[C@@H](CCCCNC(=O)COCCOCCNC(=O)COCCOCCNC(=O)CC[C@H](NC(=O)CCCCCCCCCCCCCCCCC(=O)O)C(=O)O)C(=O)N1CCC[C@H]1C(=O)N[C@@H](CCC(=O)O)C(=O)N[C@@H](CCC(=O)O)C(=O)N[C@@H](CC(=O)O)C(=O)N[C@@H](C)C(=O)N[C@@H](CO)C(=O)N1CCC[C@H]1C(=O)N[C@@H](CCC(=O)O)C(=O)N[C@@H](CCC(=O)O)C(=O)N[C@@H](CC(C)C)C(=O)N[C@@H](CCC(N)=O)C(=O)N[C@@H](CCC(N)=O)C(=O)N[C@@H](Cc1ccc(O)cc1)C(=O)N[C@@H](Cc1ccc(O)cc1)C(=O)N[C@H](C(=O)N[C@@H](CO)C(=O)N[C@@H](CC(C)C)C(=O)N[C@@H](CCCNC(=N)N)C(=O)N[C@@H](Cc1c[nH]cn1)C(=O)N[C@@H](Cc1ccc(O)cc1)C(=O)N[C@@H](Cc1ccc(O)cc1)C(=O)N[C@@H](CC(N)=O)C(=O)N[C@@H](Cc1c[nH]c2ccccc12)C(=O)N[C@@H](CC(C)C)C(=O)N[C@H](C(=O)N[C@@H](CCCNC(=N)N)C(=O)N[C@@H](CCC(N)=O)C(=O)N[C@@H](CCCNC(=N)N)C(=O)N[C@@H](Cc1ccc(O)cc1)C(N)=O)[C@@H](C)O)C(C)C [Compound 58, N{alpha-4}-(3-methylbutanoyl)-N{epsilon-7}-[2-(2-{2-[2-(2-{2-[(4S)-4-carboxy-4-(17-carboxyheptadecanamido)butanamido]ethoxy}ethoxy)acetamido]ethoxy}ethoxy)acetamido]-[4A,7K,9E,18Q,19Q,22V,28Y,30W,31L]hPYY (4-36)] | 44 % vehicle
25.1 nM | CC(C)CC(=O)N[C@@H](C)C(=O)N1CCC[C@H]1C(=O)N[C@@H](CCC(=O)O)C(=O)N[C@@H](CCCCNC(=O)COCCOCCNC(=O)COCCOCCNC(=O)CC[C@H](NC(=O)CCCCCCCCCCCCCCCCC(=O)O)C(=O)O)C(=O)N[C@H](C(=O)N[C@@H](CCC(=O)O)C(=O)N[C@@H](CCC(=O)O)C(=O)N[C@@H](CCC(=O)O)C(=O)N[C@@H](C)C(=O)N[C@@H](CO)C(=O)N1CCC[C@H]1C(=O)N[C@@H](CCC(=O)O)C(=O)N[C@@H](CCC(=O)O)C(=O)N[C@@H](CC(C)C)C(=O)N[C@@H](CCC(N)=O)C(=O)N[C@@H](CCCNC(=N)N)C(=O)N[C@@H](Cc1ccc(O)cc1)C(=O)N[C@@H](Cc1ccc(O)cc1)C(=O)N[C@H](C(=O)N[C@@H](CO)C(=O)N[C@@H](CC(C)C)C(=O)N[C@@H](CCCNC(=N)N)C(=O)N[C@@H](Cc1c[nH]cn1)C(=O)N[C@@H](Cc1ccc(O)cc1)C(=O)N[C@@H](Cc1ccc(O)cc1)C(=O)N[C@@H](CC(N)=O)C(=O)N[C@@H](Cc1c[nH]c2ccccc12)C(=O)N[C@@H](CC(C)C)C(=O)N[C@H](C(=O)N[C@@H](CCCNC(=N)N)C(=O)N[C@@H](CCC(N)=O)C(=O)N[C@@H](CCCNC(=N)N)C(=O)N[C@@H](Cc1ccc(O)cc1)C(N)=O)[C@@H](C)O)C(C)C)[C@@H](C)O [Compound 238, N{alpha-4}-(3-methylbutanoyl)-N{epsilon-7}-[2-(2-{2-[2-(2-{2-[(4S)-4-carboxy-4-(17-carboxyheptadecanamido)butanamido]ethoxy}ethoxy)acetamido]ethoxy}ethoxy)acetamido]-[4A,7K,8T,9E,11E,18Q,22V,28Y,30W,31L]hPYY (4-36)] (Isovaleryl-APEK([AEEA-AEEA-γGlu-C18 diacid])TEEEASPEELQRYYVSLRHYYNWLTRQRY-NH2) | 
0.81 nM | CC(C)CC(=O)N[C@@H](C)C(=O)N1CCC[C@H]1C(=O)N[C@@H](CCC(=O)O)C(=O)N[C@@H](CCCCNC(=O)COCCOCCNC(=O)COCCOCCNC(=O)CC[C@H](NC(=O)CCCCCCCCCCCCCCCCC(=O)O)C(=O)O)C(=O)N1CCC[C@H]1C(=O)N[C@@H](CCC(=O)O)C(=O)N[C@@H](C)C(=O)N[C@@H](CC(=O)O)C(=O)N[C@@H](C)C(=O)N[C@@H](CO)C(=O)N[C@@H](C)C(=O)N[C@@H](CCC(=O)O)C(=O)N[C@@H](CCC(=O)O)C(=O)N[C@@H](CC(C)C)C(=O)N[C@@H](CCC(N)=O)C(=O)N[C@@H](CCCNC(=N)N)C(=O)N[C@@H](Cc1ccc(O)cc1)C(=O)N[C@@H](Cc1ccc(O)cc1)C(=O)N[C@H](C(=O)N[C@@H](CO)C(=O)N[C@@H](CC(C)C)C(=O)N[C@@H](CCCNC(=N)N)C(=O)N[C@@H](Cc1c[nH]cn1)C(=O)N[C@@H](Cc1ccc(O)cc1)C(=O)N[C@@H](Cc1ccc(O)cc1)C(=O)N[C@@H](CC(N)=O)C(=O)N[C@@H](Cc1c[nH]c2ccccc12)C(=O)N[C@@H](CC(C)C)C(=O)N[C@H](C(=O)N[C@@H](CCCNC(=N)N)C(=O)N[C@@H](CCC(N)=O)C(=O)N[C@@H](CCCNC(=N)N)C(=O)N[C@@H](Cc1ccc(O)cc1)C(N)=O)[C@@H](C)O)C(C)C [Compound 242, N{alpha-4}-(3-methylbutanoyl)-N{epsilon-7}-[2-(2-{2-[2-(2-{2-[(4S)-4-carboxy-4-(17-carboxyheptadecanamido)butanamido]ethoxy}ethoxy)acetamido]ethoxy}ethoxy)acetamido]-[4A,7K,9E,10A,14A,18Q,22V,28Y,30W,31L]hPYY (4-36)] | 
2.07 nM | CC(C)CC(=O)N[C@@H](C)C(=O)N1CCC[C@H]1C(=O)N[C@@H](CCC(=O)O)C(=O)N[C@@H](CCCCNC(=O)COCCOCCNC(=O)COCCOCCNC(=O)CC[C@H](NC(=O)CCCCCCCCCCCCCCCCC(=O)O)C(=O)O)C(=O)N1CCC[C@H]1C(=O)N[C@@H](CCC(=O)O)C(=O)N[C@@H](CCC(=O)O)C(=O)N[C@@H](CCC(=O)O)C(=O)N[C@@H](C)C(=O)N[C@@H](CO)C(=O)N1CCC[C@H]1C(=O)N[C@@H](CCC(=O)O)C(=O)N[C@@H](CCC(=O)O)C(=O)N[C@@H](CC(C)C)C(=O)N[C@@H](CCC(N)=O)C(=O)N[C@@H](CCC(N)=O)C(=O)N[C@@H](Cc1ccc(O)cc1)C(=O)N[C@@H](Cc1ccc(O)cc1)C(=O)N[C@H](C(=O)N[C@@H](CO)C(=O)N[C@@H](CC(C)C)C(=O)N[C@@H](CCCNC(=N)N)C(=O)N[C@@H](Cc1c[nH]cn1)C(=O)N[C@@H](Cc1ccc(O)cc1)C(=O)N[C@@H](Cc1ccc(O)cc1)C(=O)N[C@@H](CC(N)=O)C(=O)N[C@@H](Cc1c[nH]c2ccccc12)C(=O)N[C@@H](CC(C)C)C(=O)N[C@H](C(=O)N[C@@H](CCCNC(=N)N)C(=O)N[C@@H](CCC(N)=O)C(=O)N[C@@H](CCCNC(=N)N)C(=O)N[C@@H](Cc1ccc(O)cc1)C(N)=O)[C@@H](C)O)C(C)C [Compound 243, N{alpha-4}-(3-methylbutanoyl)-N{epsilon-7}-[2-(2-{2-[2-(2-{2-[(4S)-4-carboxy-4-(17-carboxyheptadecanamido)butanamido]ethoxy}ethoxy)acetamido]ethoxy}ethoxy)acetamido]-[4A,7K,9E,11E,18Q,19Q,22V,28Y,30W,31L]hPYY (4-36)] (Isovaleryl-APEK([AEEA-AEEA-γGlu-C18 diacid])PEEEASPEELQQYYVSLRHYYNWLTRQRY-NH2) | 
